Data published in patent US6989155B1, “Powders” (Vectura Limited, priority 1998, dated 2006).

Legend:
Format in all cases: physicochemical
[1] = Bulk density (poured density) of powder in a 100 cm^3 measuring cylinder; conditions: L-leucine samples
Method: The bulk density (or poured density) of a material of the present invention is determined by the following method:
2 g of the material is poured from weighing paper into a 100 cm^3 graduated glass measuring cylinder in an upright position. Transfer of the material from the paper into the cylinder is made as rapidly as flow permits. The volume occupied by the poured powder in the cylinder is measured to the nearest 0.5 ml (bulk volume) and the weight of the powder is determined.
The bulk density of the material is calculated as the weight of the powder divided by the bulk volume.
The bulk density and particle size diameter (as VMD) were determined for the spray-dried leucine. Bulk density and VMD were determined by the method indicated above.
The bulk density and particle size distribution were determined by the methods described in respect of Example 1 above, and are given in Table 3.

[2] = Particle size distribution by low angle laser light scattering (Mastersizer X); conditions: for D(v,90): diameter below which 90% of particles by volume reside, unit not given; for VMD: volume median diameter, dispersant 0.05% lecithin in cyclohexane
Method: The particle size distribution was determined by low angle laser light scattering (Mastersizer X, Malvern Instruments, Malvern, UK). To approximately 5 mg of the sample to be analysed 10 ml of dispersant was added (0.05% lecithin in cyclohexane). The sample suspension was sonicated for 30 seconds before analysis. The volume median diameter (VMD) and D(v,90) were determined. VMD is the diameter such that 50% of the particles by volume have a diameter less than the VMD. D(v,90) is the equivalent volume diameter at 90% cumulative volume. The bulk density and particle size diameter (as VMD) were determined for the spray-dried leucine. Bulk density and VMD were determined by the method indicated above.

[3] = Flow properties: poured density, tapped density and Carr's Index; conditions: for Poured Density: 250 cm^3 measuring cylinder; for Tapped Density: tapped to constant volume
Method: The flow properties of the L-leucine were determined by measuring the Carr's Index of the powder. Spray-dried L-leucine was added to a powdered protein (BSA-maltodextrin 50:50).
Carr's Index of a sample was determined by measuring the volume (Vpour) of weight (W) poured into a 250 cm^3 measuring cylinder and tapping the cylinder to obtain constant volume of the sample (Vtap). The poured density (bulk density) and the tap density are calculated as W/Vpour and W/Vtap respectively and Carr's Index is calculated from the tapped density and the poured density by the formula [formula]

[4] = Thickness of flakes (electron microscope observation); conditions: flakes prepared by the spray drying method
Description: Observation of the thickness of the flakes may be made by studying electron microscope (SEM) images of the particles. For example, flakes may be mounted on an electron microscope stub with double sided tape and coated with gold prior to examination on an electron microscope. An alternative method for observing the dimensions of particles of the present invention is by sizing the particles on a microscope slide in a similar way to that described in British Pharmacopoeia 1973 (page 645, Ergotamine Aerosol Inhalation). In this case a small quantity of particles, for example 10 to 100 mg, are dropped onto a microscope slide and examined under a microscope to assess the particle size of the deposit.

[5] = listed as unprocessed L-leucine

Compound | Bulk Density ([1]; Example 1, Table 1) [g cm^−3] | VMD [2] | Bulk Density ([1]; Example 2, Table 3) [gcm^−3] | further results
CC(C)C[C@H](N)C(=O)O [spray-dried D, L-leucine] | 0.035 |  |  | 
CC(C)C[C@H](N)C(=O)O [spray-dried C, L-leucine] | 0.029 |  |  | 
CC(C)C[C@H](N)C(=O)O [spray-dried E, L-leucine] | 0.032 | 3.9 μm |  | D(v,90) [2]: 11.9
CC(C)C[C@H](N)C(=O)O [condensed, L-leucine] |  |  | 0.04 | 
CC(C)C[C@H](N)C(=O)O [spray-dried B, L-leucine] | 0.035 |  |  | 
CC(C)C[C@H](N)C(=O)O [spray-dried A, L-leucine] | 0.042 | 4.2 μm |  | D(v,90) [2]: 10.6
CC(C)C[C@H](N)C(=O)O [unprocessed, L-leucine, reference compound] | 0.710 |  | 0.70 | Poured Density [3, 5]: 0.710 gcm^−3; Tapped Density [3, 5]: 0.770 gcm^−3
CC(C)C[C@H](N)C(=O)O [spray-dried L-leucine, L-leucine] |  |  |  | Poured Density [3]: 0.043 gcm^−3; Tapped Density [3]: 0.055 gcm^−3; thickness of flakes [4]: less than 100 nm
CC(C)C[C@H](N)C(=O)O [milled, L-leucine, reference compound] |  | milled (VMD = 18 μm) | 0.30 | 
